These results are taken from patent US6828316B2, “Diamide compound and medicine containing the same” (Kowa Co., Ltd., priority 1996, dated 2004).

Structures can show the parent of a compound that is named as a salt.

The test deals with production of IgE antibody. Kind of test: Evaluation of inhibitory effect on production of IgE antibody. The following applies: B-cell; test agent at a concentration of 10^−5 M; mouse (Balb/C) spleen B cells cultured with LPS then mouse IL-4; IgE in culture supernatant by ELISA. It counts as cell-based. Here is the method: Evaluation of Inhibitory Effect on Production of IgE Antibody
A spleen was enucleated from a mouse (Balb/C, male, aged 8 weeks) and shredded in 0.3% BSA/HBSS to prepare single cells by means of a 200-mesh screen. Further, the single cells were hemolyzed by 0.75% ammonium chloride-17 mM Tris solution to prepare a splenocyte suspension (1×10^7/ml) using RPMI 1640 medium/25 mM HPES/0.3% BSA. After the suspension was reacted with a mouse anti-mouse Thy-1.2 monoclonal antibody at 4° C. for 1 hour, the reaction mixture was centrifuged, and the sediment cells were suspended again (1×10^7/ml, RPMI/HPES/BAS). After the suspension was then reacted with a low-cytotoxic rabbit complement (product of Cedarlane Co.) at 37° C. for 1 hour, killed cells were removed by specific gravity centrifugation using lympholyte M (product of Cedarlane Co.) to obtain a B cell fraction as viably cells.
After B cells (10^5/0.2 ml/well) were cultured for a day together with LPS (E. coli 026:B6, product of DIFCO Co.) using a 96-well plate, mouse IL-4 (product of Genzyme Co.) was added to conduct culture further for 7 days.
Each test agent was added on the first day of the culture, and the amount of IgE in a culture supernatant was measured by ELISA, thereby calculating out the inhibitory effect of the agent on the production of an IgE antibody.
Consider `O=C(/C=C/C=C/c1ccccc1)N1CCCN(C(=O)/C=C/C=C/c2ccccc2)CC1` [Example 1, 1,4-bis[5-phenylpenta-(2E,4E)-dienoyl]hexahydro-1,4-diazepine], for which testing at 10 µM gave an inhibition of 100%.
The value for `COc1cc(/C=C/C=C/C(=O)N2CCCN(C(=O)/C=C/C=C/c3cc(OC)c(OC)c(OC)c3)CC2)cc(OC)c1OC` [Example 17, 1,4-bis[5-(3,4,5-trimethoxyphenyl)-penta-(2E,4E)-dienoyl]hexahydro-1,4-diazepine] was 100%; that for `O=C(/C=C/C=C/c1ccccn1)N1CCCN(C(=O)/C=C/C=C/c2ccccn2)CC1` [Example 19, 1,4-bis[5-(2-pyridyl)penta-(2E,4E)-dienoyl]hexahydro-1,4-diazepine] was 20%; that for `O=C(/C=C/C=C/c1cccc2cccnc12)N1CCCN(C(=O)/C=C/C=C/c2cccc3cccnc23)CC1` [Example 25, 1,4-bis[5-(8-quinolyl)penta-(2E,4E)-dienoyl]hexahydro-1,4-diazepine] was 100%.
The value for `COc1cc(/C=C/C=C/C(=O)N2CCN(C(=O)/C=C/C=C/c3cc(OC)c(OC)c(OC)c3)CC2)cc(OC)c1OC` [Example 29, 1,4-bis[5-(3,4,5-trimethoxyphenyl)-penta-(2E,4E)-dienoyl]piperazine] was 100%; that for `O=C(/C=C/C=C/c1cccc2cccnc12)N1CCN(C(=O)/C=C/C=C/c2cccc3cccnc23)CC1` [Example 32, 1,4-bis[5-(8-quinolyl)penta-(2E,4E)-dienoyl]piperazine] was 85%; that for `COc1cc(/C=C/C=C/C(=O)N2CCN(C(=O)/C=C/C=C/c3cc(OC)c(OC)c(OC)c3)C(C(=O)O)C2)cc(OC)c1OC` (stereo not shown) [Example 34, 1,4-bis[5-(3,4,5-trimethoxyphenyl)-penta-(2E,4E)-dienoyl]piperazine-2-carboxylic acid] was 90%.
Under `COc1cc(/C=C/C=C/C(=O)N2CCN(C(=O)/C=C/C=C/c3cc(OC)c(OC)c(OC)c3)C(CN(C)C)C2)cc(OC)c1OC` (stereo not shown) [Example 36, 1,4-bis[5-(3,4,5-trimethoxyphenyl)-penta-(2E,4E)-dienoyl]-2-(N,N-dimethylaminomethyl)-piperazine hydrochloride] stands 100%.
On to `COc1cc(/C=C/C=C/C(=O)N2CCN(C(=O)/C=C/C=C/c3cc(OC)c(OC)c(OC)c3)c3ccccc32)cc(OC)c1OC` [Example 41, 1,4-bis[5-(3,4,5-trimethoxyphenyl)-penta-(2E,4E)-dienoyl]-1,2,3,4-tetrahydroquinoxaline], for which testing at 10 µM gave an inhibition of 100%.
With `COc1cc(/C=C/C=C/C(=O)N2CCN(C(=O)/C=C/C=C/c3cc(OC)c(OC)c(OC)c3)c3ncccc32)cc(OC)c1OC` [Example 42, 1,4-bis[5-(3,4,5-trimethoxyphenyl)-penta-(2E,4E)-dienoyl]-pyrido[2,3-b]-1,2,3,4-tetrahydropyrazine], the inhibition – broadly, the change of the read-out against control, counted positive when it falls – at 10 µM was found to be 95%.
